From ChEMBL document CHEMBL2380238, “Synthesis, spectral and antimicrobial evaluation of some novel 1-methyl-3-alkyl-2,6-diphenylpiperidin-4-one oxime carbonates” (2013)
Converted amounts (≈) assume the structure as drawn. The source made the active and inactive calls. No cut-off for these calls is given here.

Tests used:
Assay type in all cases: functional
[1] = test system: Enterococcus faecalis; experiment: Antibacterial activity against Streptococcus faecalis after 24 hrs by broth dilution method
[2] = test system: Rhizopus; experiment: Antifungal activity against Rhizopus after 72 to 96 hrs by broth dilution method
[3] = test system: Bacillus subtilis; experiment: Antibacterial activity against Bacillus subtilis
[4] = test system: Fusarium; experiment: Antifungal activity against Fusarium after 72 to 96 hrs by broth dilution method
[5] = test system: Bacillus subtilis; experiment: Antibacterial activity against Bacillus subtilis after 24 hrs by broth dilution method
[6] = test system: Klebsiella pneumoniae; experiment: Antibacterial activity against Klebsiella pneumoniae
[7] = test system: Penicillium; experiment: Antifungal activity against Penicillium after 72 to 96 hrs by broth dilution method
[8] = test system: Klebsiella pneumoniae; experiment: Antibacterial activity against Klebsiella pneumoniae after 24 hrs by broth dilution method
[9] = test system: Rhizopus; experiment: Antifungal activity against Rhizopus
[10] = test system: Aspergillus flavus; experiment: Antifungal activity against Aspergillus flavus after 72 to 96 hrs by broth dilution method
[11] = test system: Pseudomonas aeruginosa; experiment: Antibacterial activity against Pseudomonas aeruginosa
[12] = test system: Escherichia coli; experiment: Antibacterial activity against Escherichia coli after 24 hrs by broth dilution method
[13] = test system: Escherichia coli; experiment: Antibacterial activity against Escherichia coli
[14] = test system: Fusarium; experiment: Antifungal activity against Fusarium
[15] = test system: Aspergillus niger; experiment: Antifungal activity against Aspergillus niger
[16] = test system: Enterococcus faecalis; experiment: Antibacterial activity against Streptococcus faecalis
[17] = test system: Penicillium; experiment: Antifungal activity against Penicillium
[18] = test system: Aspergillus niger; experiment: Antifungal activity against Aspergillus niger after 72 to 96 hrs by broth dilution method
[19] = test system: Aspergillus flavus; experiment: Antifungal activity against Aspergillus flavus
[20] = test system: Pseudomonas aeruginosa; experiment: Antibacterial activity against Pseudomonas aeruginosa after 24 hrs by broth dilution method

SMILES: CC1/C(=N/O)CC(c2ccccc2)N(C)C1c1ccccc1 (stereo not given)
- MIC [1]: 200 µg/mL (≈ 679 µM)
- MIC [2]: 100 µg/mL (≈ 340 µM)
- inhibition zone (IZ) [3]: 12 mm
- MIC [4]: 200 µg/mL (≈ 679 µM)
- MIC [5]: 100 µg/mL (≈ 340 µM)
- inhibition zone (IZ) [6]: inactive
- MIC [7]: 200 µg/mL (≈ 679 µM)
- MIC [8]: 200 µg/mL (≈ 679 µM)
- inhibition zone (IZ) [9]: 12 mm
- MIC [10]: 200 µg/mL (≈ 679 µM)
- inhibition zone (IZ) [11]: inactive
- MIC [12]: 100 µg/mL (≈ 340 µM)
- inhibition zone (IZ) [13]: 12 mm
- inhibition zone (IZ) [14]: inactive
- inhibition zone (IZ) [15]: inactive
- inhibition zone (IZ) [16]: inactive
- inhibition zone (IZ) [17]: inactive
- MIC [18]: 200 µg/mL (≈ 679 µM)
- inhibition zone (IZ) [19]: inactive
- MIC [20]: 200 µg/mL (≈ 679 µM)

SMILES: CCOC(=O)O/N=C1\CC(c2ccccc2)N(C)C(c2ccccc2)C1CC (stereo not given)
- MIC [1]: 100 µg/mL (≈ 263 µM)
- MIC [2]: 100 µg/mL (≈ 263 µM)
- inhibition zone (IZ) [3]: 12 mm
- MIC [4]: 200 µg/mL (≈ 526 µM)
- MIC [5]: 25 µg/mL (≈ 65.7 µM)
- inhibition zone (IZ) [6]: inactive
- MIC [7]: 200 µg/mL (≈ 526 µM)
- MIC [8]: 200 µg/mL (≈ 526 µM)
- inhibition zone (IZ) [9]: 12 mm
- MIC [10]: 200 µg/mL (≈ 526 µM)
- inhibition zone (IZ) [11]: inactive
- MIC [12]: 25 µg/mL (≈ 65.7 µM)
- inhibition zone (IZ) [13]: 12 mm
- inhibition zone (IZ) [14]: inactive
- inhibition zone (IZ) [15]: inactive
- inhibition zone (IZ) [16]: 12 mm
- inhibition zone (IZ) [17]: inactive
- MIC [18]: 200 µg/mL (≈ 526 µM)
- inhibition zone (IZ) [19]: inactive
- MIC [20]: 200 µg/mL (≈ 526 µM)

SMILES: C[C@@H]1[C@H](O)[C@@H](C)/C=C/C=C/C=C/C=C/C=C/C=C/C=C/[C@H](O[C@@H]2O[C@H](C)[C@@H](O)[C@H](N)[C@@H]2O)C[C@@H]2O[C@](O)(C[C@@H](O)C[C@@H](O)[C@H](O)CC[C@@H](O)C[C@@H](O)CC(=O)O[C@H]1C)C[C@H](O)[C@H]2C(=O)O [AMPHOTERICIN B]
- MIC [2]: 25 µg/mL (≈ 27.1 µM)
- MIC [4]: 25 µg/mL (≈ 27.1 µM)
- MIC [7]: 25 µg/mL (≈ 27.1 µM)
- inhibition zone (IZ) [9]: 21 mm
- MIC [10]: 50 µg/mL (≈ 54.1 µM)
- inhibition zone (IZ) [14]: 22 mm
- inhibition zone (IZ) [15]: 21 mm
- inhibition zone (IZ) [17]: 22 mm
- MIC [18]: 50 µg/mL (≈ 54.1 µM)
- inhibition zone (IZ) [19]: 22 mm

SMILES: CC1/C(=N/OC(=O)Oc2ccccc2)CC(c2ccccc2)N(C)C1c1ccccc1 (stereo not given)
- MIC [1]: 25 µg/mL (≈ 60.3 µM)
- MIC [2]: 50 µg/mL (≈ 121 µM)
- inhibition zone (IZ) [3]: 12 mm
- MIC [4]: 25 µg/mL (≈ 60.3 µM)
- MIC [5]: 25 µg/mL (≈ 60.3 µM)
- inhibition zone (IZ) [6]: 17 mm
- MIC [7]: 50 µg/mL (≈ 121 µM)
- MIC [8]: 12.5 µg/mL (≈ 30.2 µM)
- inhibition zone (IZ) [9]: 12 mm
- MIC [10]: 50 µg/mL (≈ 121 µM)
- inhibition zone (IZ) [11]: 12 mm
- MIC [12]: 12.5 µg/mL (≈ 30.2 µM)
- inhibition zone (IZ) [13]: 17 mm
- inhibition zone (IZ) [14]: 12 mm
- inhibition zone (IZ) [15]: 12 mm
- inhibition zone (IZ) [16]: 17 mm
- inhibition zone (IZ) [17]: 12 mm
- MIC [18]: 100 µg/mL (≈ 241 µM)
- inhibition zone (IZ) [19]: 12 mm
- MIC [20]: 25 µg/mL (≈ 60.3 µM)

SMILES: CC(C)C1/C(=N/O)CC(c2ccccc2)N(C)C1c1ccccc1 (stereo not given)
- MIC [1]: 50 µg/mL (≈ 155 µM)
- MIC [2]: 50 µg/mL (≈ 155 µM)
- inhibition zone (IZ) [3]: 12 mm
- MIC [4]: 200 µg/mL (≈ 620 µM)
- MIC [5]: 25 µg/mL (≈ 77.5 µM)
- inhibition zone (IZ) [6]: inactive
- MIC [7]: 100 µg/mL (≈ 310 µM)
- MIC [8]: 200 µg/mL (≈ 620 µM)
- inhibition zone (IZ) [9]: 12 mm
- MIC [10]: 200 µg/mL (≈ 620 µM)
- inhibition zone (IZ) [11]: 12 mm
- MIC [12]: 50 µg/mL (≈ 155 µM)
- inhibition zone (IZ) [13]: 17 mm
- inhibition zone (IZ) [14]: inactive
- inhibition zone (IZ) [15]: inactive
- inhibition zone (IZ) [16]: 12 mm
- inhibition zone (IZ) [17]: 12 mm
- MIC [18]: 200 µg/mL (≈ 620 µM)
- inhibition zone (IZ) [19]: inactive
- MIC [20]: 200 µg/mL (≈ 620 µM)

SMILES: COC(=O)O/N=C1\CC(c2ccccc2)N(C)C(c2ccccc2)C1C(C)C (stereo not given)
- MIC [1]: 50 µg/mL (≈ 131 µM)
- MIC [2]: 200 µg/mL (≈ 526 µM)
- inhibition zone (IZ) [3]: 12 mm
- MIC [4]: 200 µg/mL (≈ 526 µM)
- MIC [5]: 12.5 µg/mL (≈ 32.9 µM)
- inhibition zone (IZ) [6]: inactive
- MIC [7]: 200 µg/mL (≈ 526 µM)
- MIC [8]: 200 µg/mL (≈ 526 µM)
- inhibition zone (IZ) [9]: inactive
- MIC [10]: 100 µg/mL (≈ 263 µM)
- inhibition zone (IZ) [11]: inactive
- MIC [12]: 12.5 µg/mL (≈ 32.9 µM)
- inhibition zone (IZ) [13]: 17 mm
- inhibition zone (IZ) [14]: inactive
- inhibition zone (IZ) [15]: inactive
- inhibition zone (IZ) [16]: 12 mm
- inhibition zone (IZ) [17]: inactive
- MIC [18]: 200 µg/mL (≈ 526 µM)
- inhibition zone (IZ) [19]: 12 mm
- MIC [20]: 200 µg/mL (≈ 526 µM)

SMILES: CC(C)C1/C(=N/OC(=O)Oc2ccccc2)CC(c2ccccc2)N(C)C1c1ccccc1 (stereo not given)
- MIC [1]: 25 µg/mL (≈ 56.5 µM)
- MIC [2]: 25 µg/mL (≈ 56.5 µM)
- inhibition zone (IZ) [3]: 17 mm
- MIC [4]: 25 µg/mL (≈ 56.5 µM)
- MIC [5]: 25 µg/mL (≈ 56.5 µM)
- inhibition zone (IZ) [6]: 22 mm
- MIC [7]: 25 µg/mL (≈ 56.5 µM)
- MIC [8]: 6.25 µg/mL (≈ 14.1 µM)
- inhibition zone (IZ) [9]: 17 mm
- MIC [10]: 50 µg/mL (≈ 113 µM)
- inhibition zone (IZ) [11]: 22 mm
- MIC [12]: 25 µg/mL (≈ 56.5 µM)
- inhibition zone (IZ) [13]: 17 mm
- inhibition zone (IZ) [14]: 17 mm
- inhibition zone (IZ) [15]: 12 mm
- inhibition zone (IZ) [16]: 17 mm
- inhibition zone (IZ) [17]: 17 mm
- MIC [18]: 50 µg/mL (≈ 113 µM)
- inhibition zone (IZ) [19]: 17 mm
- MIC [20]: 6.25 µg/mL (≈ 14.1 µM)

SMILES: CC(Cl)OC(=O)O/N=C1\CC(c2ccccc2)N(C)C(c2ccccc2)C1C(C)C (stereo not given)
- MIC [1]: 6.25 µg/mL (≈ 14.6 µM)
- MIC [2]: 25 µg/mL (≈ 58.3 µM)
- inhibition zone (IZ) [3]: 32 mm
- MIC [4]: 12.5 µg/mL (≈ 29.1 µM)
- MIC [5]: 6.25 µg/mL (≈ 14.6 µM)
- inhibition zone (IZ) [6]: 32 mm
- MIC [7]: 12.5 µg/mL (≈ 29.1 µM)
- MIC [8]: 6.25 µg/mL (≈ 14.6 µM)
- inhibition zone (IZ) [9]: 22 mm
- MIC [10]: 25 µg/mL (≈ 58.3 µM)
- inhibition zone (IZ) [11]: 32 mm
- MIC [12]: 12.5 µg/mL (≈ 29.1 µM)
- inhibition zone (IZ) [13]: 22 mm
- inhibition zone (IZ) [14]: 32 mm
- inhibition zone (IZ) [15]: 17 mm
- inhibition zone (IZ) [16]: 32 mm
- inhibition zone (IZ) [17]: 32 mm
- MIC [18]: 25 µg/mL (≈ 58.3 µM)
- inhibition zone (IZ) [19]: 22 mm
- MIC [20]: 6.25 µg/mL (≈ 14.6 µM)

SMILES: CCC1/C(=N/OC(=O)Oc2ccccc2)CC(c2ccccc2)N(C)C1c1ccccc1 (stereo not given)
- MIC [1]: 25 µg/mL (≈ 58.3 µM)
- MIC [2]: 25 µg/mL (≈ 58.3 µM)
- inhibition zone (IZ) [3]: 17 mm
- MIC [4]: 50 µg/mL (≈ 117 µM)
- MIC [5]: 25 µg/mL (≈ 58.3 µM)
- inhibition zone (IZ) [6]: 22 mm
- MIC [7]: 25 µg/mL (≈ 58.3 µM)
- MIC [8]: 6.25 µg/mL (≈ 14.6 µM)
- inhibition zone (IZ) [9]: 17 mm
- MIC [10]: 50 µg/mL (≈ 117 µM)
- inhibition zone (IZ) [11]: 17 mm
- MIC [12]: 25 µg/mL (≈ 58.3 µM)
- inhibition zone (IZ) [13]: 12 mm
- inhibition zone (IZ) [14]: 17 mm
- inhibition zone (IZ) [15]: 17 mm
- inhibition zone (IZ) [16]: 17 mm
- inhibition zone (IZ) [17]: 17 mm
- MIC [18]: 50 µg/mL (≈ 117 µM)
- inhibition zone (IZ) [19]: 17 mm
- MIC [20]: 12.5 µg/mL (≈ 29.2 µM)

SMILES: CN[C@@H]1[C@H](O[C@H]2[C@H](O[C@H]3[C@H](O)[C@@H](O)[C@H](N=C(N)N)[C@@H](O)[C@@H]3N=C(N)N)O[C@@H](C)[C@]2(O)C=O)O[C@@H](CO)[C@H](O)[C@H]1O [STREPTOMYCIN]
- MIC [1]: 50 µg/mL (≈ 86 µM)
- inhibition zone (IZ) [3]: 28 mm
- MIC [5]: 12.5 µg/mL (≈ 21.5 µM)
- inhibition zone (IZ) [6]: 26 mm
- MIC [8]: 25 µg/mL (≈ 43 µM)
- inhibition zone (IZ) [11]: 26 mm
- MIC [12]: 12.5 µg/mL (≈ 21.5 µM)
- inhibition zone (IZ) [13]: 28 mm
- inhibition zone (IZ) [16]: 22 mm
- MIC [20]: 25 µg/mL (≈ 43 µM)
